Assay results taken from patent publication US6147100A, “Pyrrolidine derivatives having phospholipase A2 inhibitory activity” (Shionogi & Co., Ltd., priority 1997, dated 2000).

Tests used:
[1] = tested on: production of prostaglandin E2 by human fibroblasts; test: Inhibition of Production of Prostaglandin E2 in Human Fibroblasts (IL-1 stimulation); format: cell-based; details: Fibroblast; human fibroblasts under stimulation with IL-1
Method: Test Example 2 Inhibition of Production of Prostaglandin E2 in Human Fibroblasts.
In order to examine the availability of the composition for inhibiting cytosolic phospholipase A2 (cPLA2) on the cells, the compounds of the present invention were tested for the effect on the production of prostaglandin E2 by human fibroblasts under the stimulation with IL-1 according to the method of J. M. Dayer et al (CACHECTIN/TUMOR NECROSIS FACTOR STIMULATES COLLAGENASE AND PROSTAGLANDIN E2 PRODUCTION BY HUMAN SYNOVIAL CELLS AND DERMAL FIBROBLASTS; J. M. Dayer, B, Beutler and A, Cerami, J. EXP. Med., 1985, 162, 2163-2168.).

cPLA2 = biological target: T1, cPLA2 (Homo sapiens, UniProt P47712); test: cPLA2 Inhibitory Activity; format: biochemical; details: 1-palmitoyl-2-[14C]-arachidonoyl-sn-glycero-3-phosphocholine 2.5 μM, sn-1,2-dioleoylglycerol 1.25 μM; pH 7.5, 15 min at 37° C.
T1 sequence (P47712 1-749): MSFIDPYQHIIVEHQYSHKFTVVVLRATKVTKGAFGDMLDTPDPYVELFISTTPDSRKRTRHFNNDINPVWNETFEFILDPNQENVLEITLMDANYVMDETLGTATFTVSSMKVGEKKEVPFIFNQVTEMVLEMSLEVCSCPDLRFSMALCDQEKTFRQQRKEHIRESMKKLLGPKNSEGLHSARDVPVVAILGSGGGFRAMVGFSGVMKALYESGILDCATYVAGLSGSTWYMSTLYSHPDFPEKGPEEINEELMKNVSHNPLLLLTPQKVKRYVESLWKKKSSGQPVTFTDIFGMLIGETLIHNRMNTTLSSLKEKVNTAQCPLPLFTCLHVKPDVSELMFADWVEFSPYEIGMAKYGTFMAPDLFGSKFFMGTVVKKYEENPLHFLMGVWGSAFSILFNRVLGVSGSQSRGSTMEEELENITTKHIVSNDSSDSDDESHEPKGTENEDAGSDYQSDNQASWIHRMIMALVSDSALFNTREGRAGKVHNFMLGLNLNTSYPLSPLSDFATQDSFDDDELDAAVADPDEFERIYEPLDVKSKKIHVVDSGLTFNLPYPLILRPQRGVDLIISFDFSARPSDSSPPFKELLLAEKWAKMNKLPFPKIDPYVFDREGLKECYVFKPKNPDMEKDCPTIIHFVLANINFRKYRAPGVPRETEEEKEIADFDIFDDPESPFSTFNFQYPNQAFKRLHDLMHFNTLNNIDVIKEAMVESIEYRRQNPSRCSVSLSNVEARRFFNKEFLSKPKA
Method in brief: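 Radiometric assay in 50 mM HEPES pH 7.5 with 1 mM CaCl2, 150 mM NaCl, 0.1 mg/ml BSA and 1.7 mM DTT; compound and substrate added, reaction started with enzyme, 15 min at 37° C. Released fatty acids extracted (Dole method), counted by liquid scintillation versus no-compound control.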

| IC50 (cPLA2) | Structure (SMILES) | IC50 [1] |
| --- | --- | --- |
| 58 nM | O=C1NC(=O)/C(=C/c2ccc(C(=O)NC[C@@H]3C[C@@H](COc4ccccc4-c4ccccc4)CN3C(=O)c3ccccc3C(=O)c3ccc(F)cc3)cc2)S1 [Compound O-2] | 230 nM |
| 27 nM | O=C1NC(=O)/C(=C/c2ccc(C(=O)NC[C@@H]3C[C@@H](N(CC4CC4)C(c4ccccc4)c4ccccc4)CN3C(=O)c3ccccc3C(=O)c3ccc(F)cc3)cc2)S1 [Compound M-14] | 1400 nM |
| 430 nM | O=C1NC(=O)/C(=C/c2ccc(NC(=O)[C@@H]3C[C@@H](SCc4ccccc4-c4ccccc4)CN3C(=O)c3ccccc3C(=O)c3ccc(F)cc3)s2)S1 [Compound J-3] | 5700 nM |
| 84 nM | O=C1NC(=O)/C(=C/c2ccc(NC(=O)[C@@H]3C[C@@H](SCc4ccccc4-c4ccccc4)CN3C(=O)c3ccccc3C(=O)c3ccc(F)cc3)cc2)S1 [Compound J-1] | 120 nM |
| 60 nM | O=C1NC(=O)/C(=C/c2ccc(C(=O)NC[C@@H]3C[C@@H](N(Cc4ccccc4)Cc4ccccc4)CN3C(=O)c3ccccc3C(=O)c3ccc(F)cc3)cc2)S1 [Compound M-3] | 3100 nM |
| 420 nM | O=C(C[C@@H]1C[C@@H](OCc2ccccc2-c2ccccc2)CN1C(=O)c1ccccc1C(=O)c1ccc(F)cc1)Nc1ccc(/C=C2\SC(=S)NC2=O)cc1 [Compound F-3] | 3000 nM |
| 240 nM | O=C1NC(=O)/C(=C/c2ccc(S(=O)(=O)NC[C@@H]3C[C@@H](SCc4ccccc4-c4ccccc4)CN3C(=O)c3ccccc3C(=O)c3ccc(F)cc3)s2)S1 [Compound I-9] | 1800 nM |
| 55 nM | O=C1NC(=O)/C(=C/c2ccc(C(=O)NC[C@@H]3C[C@@H](CCc4ccccc4-c4ccccc4)CN3C(=O)c3ccccc3C(=O)c3ccc(F)cc3)cc2)S1 [Compound O-3] | 1100 nM |
| 750 nM | O=C1NC(=S)S/C1=C\c1ccc(/C=C\[C@@H]2C[C@@H](OCc3ccccc3-c3ccccc3)CN2C(=O)c2ccccc2C(=O)c2ccc(F)cc2)s1 [Compound E-5] | 3500 nM |
| 59 nM | CN(Cc1ccccc1-c1ccccc1)[C@@H]1C[C@@H](C(=O)Nc2ccc(/C=C3\SC(=S)NC3=O)cc2)N(C(=O)c2ccccc2C(=O)c2ccc(F)cc2)C1 [Compound N-3] | 1000 nM |
| 500 nM | O=C1NC(=S)S/C1=C\c1ccc(NC(=O)[C@@H]2C[C@@H](SCc3ccccc3-c3ccccc3)CN2C(=O)c2ccccc2C(=O)c2ccc(F)cc2)c(O)c1 [Compound J-7] | 6200 nM |
| 480 nM | O=C1NC(=S)S/C1=C\c1ccc(S(=O)(=O)NC[C@@H]2C[C@@H](SCc3ccccc3-c3ccccc3)CN2C(=O)c2ccccc2C(=O)c2ccc(F)cc2)cc1 [Compound I-4] | 1300 nM |
| 1810 nM | O=C1NC(=O)/C(=C/c2ccc(C(=O)NC[C@H]3C[C@@H](OCc4ccccc4-c4ccccc4)CN3C(=O)c3ccccc3C(=O)c3ccc(F)cc3)cc2)S1 [Compound Q-2] | 1400 nM |
| 1850 nM | O=C1NC(=O)/C(=C/c2ccc(C(=O)NC[C@H]3C[C@H](SCc4ccccc4-c4ccccc4)CN3C(=O)c3ccccc3C(=O)c3ccc(F)cc3)cc2)S1 [Compound Q-4] | 950 nM |
| 34 nM | O=C1NC(=O)/C(=C/c2ccc(C(=O)NC[C@@H]3C[C@@H](SCc4ccccc4-c4ccccc4)CN3C(=O)c3ccccc3C(=O)c3ccc(F)cc3)cc2)S1 [Compound I-5] | 490 nM |
| 2.1 nM | CC(C)CN(C(c1ccccc1)c1ccccc1)[C@@H]1C[C@@H](CNC(=O)/C=C/c2ccc(/C=C3\SC(=O)NC3=O)cc2)N(C(=O)c2ccccc2C(=O)c2ccc(F)cc2F)C1 [Compound M-21] | 310 nM |

The remaining lines, values behind:

| Structure (SMILES) | IC50 (cPLA2) | IC50 [1] |
| --- | --- | --- |
| O=C1NC(=S)S/C1=C\c1ccc(C(=O)NC[C@@H]2C[C@@H](OCc3ccccc3-c3ccccc3)CN2C(=O)c2ccccc2C(=O)c2ccc(F)cc2)cc1 [Compound A-20] | 300 nM | 350 nM |
| Nc1ccccc1C(=O)c1ccccc1C(=O)N1C[C@H](OCc2ccccc2-c2ccccc2)C[C@H]1CNC(=O)c1ccc(/C=C2\SC(=O)NC2=O)cc1 [Compound A-23] | 460 nM | 1200 nM |
| O=C1NC(=O)/C(=C/c2ccc(C(=O)NC[C@@H]3C[C@@H](OCc4ccccc4Oc4ccccc4)CN3C(=O)c3ccccc3C(=O)c3ccc(F)cc3)cc2)S1 [Compound A-48] | 90 nM | 620 nM |
| O=C1NC(=S)S/C1=C\c1ccc(C(=O)NC[C@@H]2C[C@@H](OCc3ccccc3-c3ccccc3)CN2C(=O)c2ccccc2C(=O)c2ccc(F)cc2)s1 [Compound A-59] | 47 nM | 940 nM |
| O=C1NC(=O)/C(=C/c2ccc(C(=O)NC[C@@H]3C[C@@H](OCc4ccccc4-c4ccccc4)CN3C(=O)c3sccc3C(=O)c3ccccc3)cc2)S1 [Compound A-12] | 3100 nM | 100 nM |
| O=C1NC(=O)/C(=C/c2ccc(C(=O)NC[C@@H]3C[C@@H](OCc4ccccc4-c4cccc(C(F)(F)F)c4)CN3C(=O)c3ccccc3C(=O)c3ccc(F)cc3)cc2)S1 [Compound A-44] | 57 nM | 550 nM |
| COc1ccccc1-c1ccccc1CO[C@@H]1C[C@@H](CNC(=O)c2ccc(/C=C3\SC(=O)NC3=O)cc2)N(C(=O)c2ccccc2C(=O)c2ccc(F)cc2)C1 [Compound A-41] | 56 nM | 1200 nM |
| O=C1NC(=O)/C(=C/c2ccc(C(=O)NC[C@@H]3C[C@@H](Oc4ccc(-c5ccccc5)cc4)CN3C(=O)c3ccccc3C(=O)c3ccc(F)cc3)cc2)S1 [Compound A-70] | 90 nM | 190 nM |
| O=C1NC(=O)/C(=C/c2ccc(C(=O)NC[C@@H]3C[C@@H](OC(c4ccccc4)c4ccccc4)CN3C(=O)c3ccccc3C(=O)c3ccc(F)cc3)cc2)S1 [Compound A-29] | 86 nM | 2200 nM |
| O=C1NC(=S)S/C1=C\c1ccc(NC(=O)[C@@H]2C[C@@H](OCc3ccccc3-c3ccccc3)CN2C(=O)c2ccccc2C(=O)c2ccc(F)cc2)s1 [Compound B-7] | 1000 nM | 8100 nM |
| O=C1NC(=O)/C(=C/c2ccc(COC[C@@H]3C[C@@H](OCc4ccccc4-c4ccccc4)CN3C(=O)c3ccccc3C(=O)c3ccc(F)cc3)cc2)S1 [Compound C-1] | 350 nM | 2300 nM |
| CC(C)c1cccc(-c2ccccc2)c1O[C@@H]1C[C@@H](CNC(=O)c2ccc(/C=C3\SC(=O)NC3=O)cc2)N(C(=O)c2ccccc2C(=O)c2ccc(F)cc2)C1 [Compound A-104] | 38 nM | 1300 nM |
| CN(C)c1cccc(O[C@@H]2C[C@@H](CNC(=O)c3ccc(/C=C4\SC(=O)NC4=O)cc3)N(C(=O)c3ccccc3C(=O)c3ccc(F)cc3)C2)c1 [Compound A-87] | 180 nM | 330 nM |
| O=C1NC(=O)/C(=C/c2ccc(C(=O)NC[C@@H]3C[C@@H](Oc4ccc5ccccc5c4)CN3C(=O)c3ccccc3C(=O)c3ccc(F)cc3)cc2)S1 [Compound A-71] | 190 nM | 310 nM |
| O=C1NC(=O)/C(=C/c2ccc(C(=O)NC[C@@H]3C[C@@H](OCc4ccccc4Br)CN3C(=O)c3ccccc3C(=O)c3ccc(F)cc3)cc2)S1 [Compound A-33] | 59 nM | 460 nM |
| O=C1NC(=O)/C(=C/c2ccc(NC(=O)[C@@H]3C[C@@H](OCc4ccccc4-c4ccccc4)CN3C(=O)c3ccccc3C(=O)c3ccc(F)cc3)s2)S1 [Compound B-8] | 1000 nM | 2700 nM |
| O=C1NC(=O)/C(=C/c2ccc(S(=O)(=O)NC[C@@H]3C[C@@H](OCc4ccccc4-c4ccccc4)CN3C(=O)c3ccccc3C(=O)c3ccc(F)cc3)s2)S1 [Compound A-60] | 1300 nM | 1300 nM |
| O=C1NC(=O)/C(=C/c2ccc(C(=O)NC[C@@H]3C[C@@H](Oc4ccccc4-c4ccc5c(c4)OCO5)CN3C(=O)c3ccccc3C(=O)c3ccc(F)cc3)cc2)S1 [Compound A-101] | 62 nM | 350 nM |
| O=C1NC(=O)/C(=C/c2ccc(C(=O)NC[C@@H]3C[C@@H](Oc4cccc5c4CCCC5)CN3C(=O)c3ccccc3C(=O)c3ccc(F)cc3)cc2)S1 [Compound A-77] | 100 nM | 350 nM |
| O=C1NC(=O)/C(=C/c2ccc(C(=O)NC[C@@H]3C[C@@H](OCc4ccccc4-c4cc5ccccc5o4)CN3C(=O)c3ccccc3C(=O)c3ccc(F)cc3)cc2)S1 [Compound A-40] | 36 nM | 610 nM |
